Data as given in patent US8796289B2 (AbbVie Inc., priority 2011, dated 2014).
pKi: −log10 of the molar value.

These compounds were tested against GST-tagged-Wee1 kinase (Homo sapiens, UniProt P30291) (assay: Wee1 time-resolved fluorescence equilibrium binding assay (displacement of Oregon Green-labeled ATP-competitive kinase probe)). Conditions: not given.
Method: Wee1 kinase was assayed using a time-resolved fluorescence equilibrium binding assay monitoring displacement of a rapidly reversible Oregon Green-labeled ATP-competitive kinase probe (N-(2-(2-(2-(4-(4-(5-chloro-4-(2-(1-hydroxycyclobutyl)thiazol-5-yl)-1H-pyrrolo[2,3-b]pyridin-2-yl)phenyl)piperazin-1-yl)ethoxy)ethoxy)ethyl)-2′,7′-difluoro-3′,6′-dihydroxy-3-oxo-3H-spiro[isobenzofuran-1,9′-xanthene]-5-carboxamide) by competitive Wee1 inhibitors.

Sequence of GST-tagged-Wee1 kinase (P30291 whole entry): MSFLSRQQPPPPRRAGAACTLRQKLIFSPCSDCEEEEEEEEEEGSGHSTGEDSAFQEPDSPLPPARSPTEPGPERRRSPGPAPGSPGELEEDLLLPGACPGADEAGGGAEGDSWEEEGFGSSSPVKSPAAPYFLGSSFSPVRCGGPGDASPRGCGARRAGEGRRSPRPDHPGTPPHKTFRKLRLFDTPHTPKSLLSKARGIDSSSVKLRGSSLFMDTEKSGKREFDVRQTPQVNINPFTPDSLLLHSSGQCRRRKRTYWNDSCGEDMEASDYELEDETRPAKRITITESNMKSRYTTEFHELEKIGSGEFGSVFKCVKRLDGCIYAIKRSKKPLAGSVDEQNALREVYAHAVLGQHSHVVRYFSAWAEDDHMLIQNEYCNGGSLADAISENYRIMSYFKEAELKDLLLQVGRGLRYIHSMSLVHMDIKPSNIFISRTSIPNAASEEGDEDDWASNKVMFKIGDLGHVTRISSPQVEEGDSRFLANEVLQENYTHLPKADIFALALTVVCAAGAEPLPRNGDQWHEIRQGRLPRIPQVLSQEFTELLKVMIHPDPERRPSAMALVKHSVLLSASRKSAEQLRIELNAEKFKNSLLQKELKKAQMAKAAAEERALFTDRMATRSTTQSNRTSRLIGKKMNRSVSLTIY

Point of comparison: `CS(=O)(=O)N1CCN(c2ccc(Nc3ncc4c(=O)n(-c5c(Cl)cccc5Cl)nc(-c5ccncc5)c4n3)cc2)CC1` [Example 380, 6-(2,6-dichlorophenyl)-2-({4-[4-(methylsulfonyl)piperazin-1-yl]phenyl}amino)-8-(pyridin-4-yl)pyrimido[4,5-d]pyridazin-5(6H)-one], pKi 9.21. Against it:
- CN1CCN(c2ccc(Nc3ncc4c(=O)n(-c5c(Cl)cccc5Cl)nc(C(F)(F)F)c4n3)cc2)CC1 [Example 412, 6-(2,6-dichlorophenyl)-2-{[4-(4-methylpiperazin-1-yl)phenyl]amino}-8-(trifluoromethyl)pyrimido[4,5-d]pyridazin-5(6H)-one] — 0.21 log units lower, 9.00
- O=c1c2cnc(Nc3ccc(N4CCNCC4)cc3)nc2c(-c2ccccn2)nn1-c1cccc2ccccc12 [Example 286, 6-(naphthalen-1-yl)-2-{[4-(piperazin-1-yl)phenyl]amino}-8-(pyridin-2-yl)pyrimido[4,5-d]pyridazin-5(6H)-one] — 1.18 log units lower, 8.03
- Cn1ccnc1-c1nn(-c2c(Cl)cccc2Cl)c(=O)c2cnc(Nc3ccc(N4CCNCC4)cc3)nc12 [Example 355, 6-(2,6-dichlorophenyl)-8-(1-methyl-1H-imidazol-2-yl)-2-{[4-(piperazin-1-yl)phenyl]amino}pyrimido[4,5-d]pyridazin-5(6H)-one] — 0.59 log units lower, 8.62
- C=CCn1nc(-c2ccccc2)c2nc(Nc3ccc(S(=O)(=O)N4CCOCC4)cc3)ncc2c1=O [Example 110, 6-allyl-2-{[4-(morpholin-4-ylsulfonyl)phenyl]amino}-8-phenylpyrimido[4,5-d]pyridazin-5(6H)-one] — lower, < 5.50
- CC(C)n1nc(-c2ccccn2)c2nc(Nc3ccc4c(c3)CN(C)CC43CC3)ncc2c1=O [Example 274, 2-[(2′-methyl-2′,3′-dihydro-1′H-spiro[cyclopropane-1,4′-isoquinolin]-7′-yl)amino]-6-(propan-2-yl)-8-(pyridin-2-yl)pyrimido[4,5-d]pyridazin-5(6H)-one] — 2.46 log units lower, 6.75
- C=CCn1nc(-c2cccs2)c2nc(Nc3ccc(N4CCCN(C(C)C)CC4)c(C)c3)ncc2c1=O [Example 163, 6-allyl-2-{[4-(4-isopropyl-1,4-diazepan-1-yl)-3-methylphenyl]amino}-8-(2-thienyl)pyrimido[4,5-d]pyridazin-5(6H)-one] — 0.81 log units lower, 8.40
- C=CCn1nc(-c2cccs2)c2nc(Nc3ccc(N4CCN(C(C)C)CC4)cc3)ncc2c1=O [Example 126, 6-allyl-2-{[4-(4-isopropylpiperazin-1-yl)phenyl]amino}-8-(2-thienyl)pyrimido[4,5-d]pyridazin-5(6H)-one] — 0.99 log units lower, 8.22
- COc1cc(Nc2ncc3c(=O)n(-c4ccccc4C)nc(-c4cccs4)c3n2)ccc1N1CCN(C(C)C)CC1 [Example 132, 2-{[4-(4-isopropylpiperazin-1-yl)-3-methoxyphenyl]amino}-6-(2-methylphenyl)-8-(2-thienyl)pyrimido[4,5-d]pyridazin-5(6H)-one] — within 0.2 log units, 9.15
- CN1CCN(c2ccc(Nc3ncc4c(=O)n(-c5ccncc5Cl)nc(-c5ccncc5)c4n3)cc2)CC1 [Example 382, 6-(3-chloropyridin-4-yl)-2-{[4-(4-methylpiperazin-1-yl)phenyl]amino}-8-(pyridin-4-yl)pyrimido[4,5-d]pyridazin-5(6H)-one] — 1.09 log units lower, 8.12
- CN1CCN(c2ccc(Nc3ncc4c(=O)n(-c5ccccc5Cl)nc(-c5cccnc5Cl)c4n3)cc2)CC1 [Example 80, 6-(2-chlorophenyl)-8-(2-chloropyridin-3-yl)-2-{[4-(4-methylpiperazin-1-yl)phenyl]amino}pyrimido[4,5-d]pyridazin-5(6H)-one] — 1.64 log units lower, 7.57
- CN1Cc2cc(Nc3ncc4c(=O)n(-c5ccncc5)nc(-c5ccccn5)c4n3)ccc2C(C)(C)C1 [Example 239, 8-(pyridin-2-yl)-6-(pyridin-4-yl)-2-[(2,4,4-trimethyl-1,2,3,4-tetrahydroisoquinolin-7-yl)amino]pyrimido[4,5-d]pyridazin-5(6H)-one] — 1.61 log units lower, 7.60

Same assay, conditions: read-out: Wee-1 inhibition Ki

Compound `Cc1nn(-c2c(Cl)cccc2Cl)c(=O)c2cnc(Nc3ccc4c(c3)CNCC4)nc12` [Example 371] has a pKi of 9.70.
